From PMC9266822, “Thermal Shift Assay for Small GTPase Stability Screening: Evaluation and Suitability” (International Journal of Molecular Sciences, 2022)
Entries after “also recorded” stand apart in the source; their conditions may differ.

Tests used:
KRAS Q61L = system: T1, KRAS Q61L; experiment: Protein-Probe thermal stability assay; type: binding, human; settings: Table S1; KRAS Q61L 50 nM; MgCl2 1 mM
T1 construct: GG-Hs.KRAS4b (2-188) Q61L; His6-MBP (N, cleaved yes); made in house; host or cells: E. coli
Description: (§1) All Protein-Probe assays were performed using a sample volume of 8 µL and a two-step assay protocol. Detection was performed at room temperature (RT) by adding 65 µL Protein-Probe solution: 4 µM HIDC (1,1,3,3,3′,3′-hexamethylindodicarbocyanine iodide) and 1–1.5 nM Eu^3+-labeled peptide probe (NH2-[…]). Assays were performed in a sample buffer containing 10 mM HEPES (pH 7.5), 0.001% Triton X-100 and 20 mM NaCl and the buffer was supplemented with 0–10 mM MgCl2, 0–1 mM CaCl2, or 0–1 mM EDTA, depending on the assay. In all thermal stability assays, samples were preincubated at RT for 10 min (nucleotides) or 30 min (inhibitors) prior to thermal measurements. Depending on the studied protein, thermal ramping was performed up to 95 °C, using 5 °C intervals. At each temperature, samples were incubated for 3 min before the Protein-Probe solution was added, and the TRL-signals at 620 nm were monitored at RT.
(§2) In addition, KRAS WT was monitored in a sample buffer supplemented with 0–10 mM MgCl2 or 0–1 mM CaCl2.
(§3) Assays were performed using three DARPins alone or in combination with small molecular inhibitors. […] The thermal curves were monitored after an additional 30 min incubation at RT.

iMet-KRAS = system: T2, iMet-KRAS; experiment: Protein-Probe thermal stability assay; type: binding, human; settings: Table S1; iMet-KRAS 1 µM; MgCl2
T2 construct: iMet-KRAS (G-Hs.KRAS4b(1-169)) (Addgene #159539)
Description: as §1, §2

Ac-KRAS = system: T3, Ac-KRAS; experiment: Protein-Probe thermal stability assay; type: binding, human; settings: Table S1; Ac-KRAS 1 µM; MgCl2
T3 construct: Truncated (aa 1–169) iMet-
Description: as §1, §2

RhoA = system: T4, RhoA; experiment: Protein-Probe thermal stability assay; type: binding; settings: Table S1; RhoA 1 µM; additive concentrations not given (100 µM GDP/GTP)
T4 construct: and RhoA (1-182) were gen-; His6-MBP (N, cleaved yes); made in house; host or cells: E. coli
Description: as §1, §2
KRAS G13D (50 nM) was monitored in the presence of 0–900 nM GDP, and KRAS WT, G13D, G12D, and Q61R (50 nM) were monitored with 10 and/or 100 µM GDP, GTP, and ATP in buffer supplemented with 1 mM MgCl2. KRAS WT (50 nM) was also monitored with 10 µM GDP in a buffer without MgCl2 or supplemented with 0–1 mM CaCl2 or 1 mM EDTA. […] In addition, melting curves for KRAS WT (50 nM) were measured with GTP analogs GTPγS, GMPPNP, and GMPPCP (0–300 µM), and GMP (0–1000 µM) in the presence of 1 mM MgCl2.

KRAS G12C = system: T5, KRAS G12C; experiment: Protein-Probe thermal stability assay; type: binding, human; settings: Table S1; KRAS G12C 50 nM; EDTA 0.5 mM, MgCl2 1 mM
T5 construct: GG-Hs.KRAS4b (2-188) G12C; His6-MBP (N, cleaved yes); made in house; host or cells: E. coli
Description: All Protein-Probe assays were performed using a sample volume of 8 µL and a two-step assay protocol. […] Assays were performed in a sample buffer containing 10 mM HEPES (pH 7.5), 0.001% Triton X-100 and 20 mM NaCl and the buffer was supplemented with 0–10 mM MgCl2, 0–1 mM CaCl2, or 0–1 mM EDTA, depending on the assay. In all thermal stability assays, samples were preincubated at RT for 10 min (nucleotides) or 30 min (inhibitors) prior to thermal measurements. […] At each temperature, samples were incubated for 3 min before the Protein-Probe solution was added, and the TRL-signals at 620 nm were monitored at RT. […]
(§4) All inhibitor assays were performed with a buffer containing 1 mM MgCl2. […]

KRAS WT = system: T6, KRAS WT; experiment: Protein-Probe thermal stability assay; type: binding, human; settings: for Thermal Stability (°C): Table S1
T6 construct: His6-MBP (N, cleaved yes); made in house; host or cells: E. coli
Description: as §1, §2
[…] KRAS WT (50 nM) was also monitored with 10 µM GDP in a buffer without MgCl2 or supplemented with 0–1 mM CaCl2 or 1 mM EDTA. HRAS (2 µM), NRAS (2 µM), RhoA (2 µM), and Gαi (50 nM) were monitored with 100 µM GDP, GTP, or ATP in buffers with or without 1 mM MgCl2 and 1 mM EDTA. In addition, melting curves for KRAS WT (50 nM) were measured with GTP analogs GTPγS, GMPPNP, and GMPPCP (0–300 µM), and GMP (0–1000 µM) in the presence of 1 mM MgCl2.
as §4

KRAS G12D = experiment: Protein-Probe thermal stability assay; type: binding, human; settings: Table S1; KRAS G12D 50 nM; MgCl2 1 mM, GDP 10 mM as headed
Description: as §1, §2
(§5) KRAS G13D (50 nM) was monitored in the presence of 0–900 nM GDP, and KRAS WT, G13D, G12D, and Q61R (50 nM) were monitored with 10 and/or 100 µM GDP, GTP, and ATP in buffer supplemented with 1 mM MgCl2. KRAS WT (50 nM) was also monitored with 10 µM GDP in a buffer without MgCl2 or supplemented with 0–1 mM CaCl2 or 1 mM EDTA. HRAS (2 µM), NRAS (2 µM), RhoA (2 µM), and Gαi (50 nM) were monitored with 100 µM GDP, GTP, or ATP in buffers with or without 1 mM MgCl2 and 1 mM EDTA. In addition, melting curves for KRAS WT (50 nM) were measured with GTP analogs GTPγS, GMPPNP, and GMPPCP (0–300 µM), and GMP (0–1000 µM) in the presence of 1 mM MgCl2.
All inhibitor assays were performed with a buffer containing 1 mM MgCl2.
as §3

KRAS V14I [1] = system: T7, KRAS V14I; experiment: Protein-Probe thermal stability assay; type: binding; settings: Table S1; KRAS V14I 1 µM; MgCl2
T7 construct: KRAS V14I (residues 1-169) lacking the C terminal residues; made in house
Description: as §1

KRAS G13D [2] = system: T8, KRAS G13D; experiment: Protein-Probe thermal stability assay; type: binding, human
T8 construct: GG-Hs.KRAS4b (2-188) G13D; His6-MBP (N, cleaved yes); made in house; host or cells: E. coli
Description: as §1, §2, §5, §3

KRAS Q61R = system: T9, KRAS Q61R; experiment: Protein-Probe thermal stability assay; type: binding, human
T9 construct: GG-Hs.KRAS4b (2-188) Q61R; His6-MBP (N, cleaved yes); made in house; host or cells: E. coli
Description: as §1, §2, §5, §3

Gαi = experiment: Protein-Probe thermal stability assay; type: binding
Description: as §1, §2, §5

KRAS G13D [3] = system: T8, KRAS G13D; experiment: SYPRO Orange thermal ramping assay; type: binding, human; settings: KRAS G13D 3 µM, 1 mM MgCl2, GDP 1 µM, ATP 1 mM
Description: (§6) SYPRO Orange and ANS assays were performed using a one-step protocol, where the samples (8 µL) and SYPRO Orange/ANS solution (12 µL) were combined prior to the first heating step. The samples were incubated for 3 min at each temperature, followed by fluorescence signal measurement. SYPRO Orange was used at 5× (stock 5000×) and ANS at 10 µM final concentration.
(§7) Thermal stability curves for KRAS WT, G12C, G13D, and Q61R (0–30 µM) were monitored both with SYPRO Orange and ANS in an assay buffer with or without 1 mM MgCl2. In addition, HRAS, NRAS, KRAS V14I, RhoA, and Gαi were studied at 10 µM concentration. KRAS G13D (3 µM) was assayed with SYPRO Orange in thermal ramping in combination with 0–1000 µM GDP, 1000 µM GTP, and 1000 µM ATP in a buffer supplemented with 1 mM MgCl2. Additionally, 10 µM HRAS, NRAS, KRAS V14I, Ac-KRAS iMet-KRAS, RhoA, and Gαi were studied without additional nucleotides or with 10 or 100 µM GDP/GTP in an assay buffer supplemented with 1 mM MgCl2 or 1 mM EDTA.

NRAS, HRAS, RhoA, Gαi = experiment: Protein-Probe thermal stability assay, additional GTPases; type: binding; settings: any tested condition or protein; data not shown
Description: All Protein-Probe assays were performed using a sample volume of 8 μL and a two-step assay protocol. […] Assays were performed in a sample buffer containing 10 mM HEPES (pH 7.5), 0.001% Triton X-100 and 20 mM NaCl and the buffer was supplemented with 0-10 mM MgCl2, 0-1 mM CaCl2, or 0-1 mM EDTA, depending on the assay. […] Depending on the studied protein, thermal ramping was performed up to 95 °C, using 5 °C intervals. At each temperature, samples were incubated for 3 min before the Protein-Probe solution was added, and the TRL-signals at 620 nm were monitored at RT.

KRAS V14I [4] = system: T7, KRAS V14I; experiment: SYPRO Orange / ANS thermal ramping assay; type: binding; settings: KRAS V14I 10 µM, 1 mM MgCl2; 100 µM ATP
Description: as §6
as §7, with “Additionally, 10 µM HRAS, NRAS, KRAS V14I, Ac-KRAS iMet-KRAS, RhoA, and Gαi were studied without additional nucleotides or with 10 or 100 µM GDP/GTP in an assay buffer supplemented with 1 mM MgCl2 or 1 mM EDTA.” left out

## [Cl-].[Cl-].[Mg+2] [MgCl2]
KRAS Q61L
  Thermal Stability (°C): 60.4 ± 0.5 °C
iMet-KRAS
  Thermal Stability (°C): 66.9 ± 0.2 °C
Ac-KRAS
  Thermal Stability (°C): 66.0 ± 1.0 °C
RhoA
  Thermal Stability (°C): 61.3 ± 0.3 °C
KRAS G12C
  Thermal Stability (°C): 61.8 ± 0.5 °C
KRAS WT; KRAS WT 50 nM, additive 1 mM
  stability increase compared to 1 mM EDTA: 9.1 °C
KRAS WT; KRAS WT 100 nM, 10 mM MgCl2
  Tm: 64.7 ± 0.5 °C
KRAS WT; KRAS WT 100 nM, 1 or 10 mM MgCl2
  increase of thermal stability over that without MgCl2: approximately 10 °C
KRAS WT; KRAS WT 100 nM, additive 1 mM
  Tm: 60.1 ± 0.3 °C
KRAS WT; KRAS WT 50 nM, additive as headed: EDTA 0.5 mM, MgCl2 1 mM, GDP 10 mM, GTP 10 µM, GTPγS 10 µM, GMP-PNP 300 µM, GMP-PCP 300 µM, GMP 1 mM
  Thermal Stability (°C): 61.3 ± 0.5 °C
KRAS WT; KRAS WT 1 µM, MgCl2
  Thermal Stability (°C): 54.4 ± 0.6 °C
KRAS G12D
  Thermal Stability (°C): 60.6 ± 0.5 °C
KRAS V14I [1]
  Thermal Stability (°C): 47.5 ± 0.2 °C
KRAS G13D [2]; KRAS G13D 100 nM, additive 1 mM
  Tm: 47.7 ± 0.4 °C
KRAS G13D [2]; Table S1, KRAS G13D 50 nM, EDTA 0.5 mM, MgCl2 1 mM, GDP 10 mM, GTP 10 µM as headed
  Thermal Stability (°C): 50.7 ± 0.2 °C
KRAS Q61R; KRAS Q61R 100 nM, additive 1 mM
  Tm: 66.5 ± 0.5 °C
KRAS Q61R; Table S1, KRAS Q61R 50 nM, EDTA 0.5 mM, MgCl2 1 mM, GDP 10 mM, GTP 10 µM as headed
  Thermal Stability (°C): 71.9 ± 0.6 °C
Gαi
  effect of Mg2+ on thermal stability: ~ 4.2 °C

## Nc1ncnc2c1ncn2[C@@H]1O[C@H](COP(=O)(O)OP(=O)(O)OP(=O)(O)O)[C@@H](O)[C@H]1O [ATP, adenosine-5’-triphosphate]
KRAS G13D [3]
  stabilization: no effect; also recorded: no KRAS G13D stabilization
NRAS, HRAS, RhoA, Gαi
  stabilization: no stabilization
KRAS V14I [4]
  effect on stability: no effect
